Source: patent US20070004634A1 (Novo Nordisk A/S, priority 1998, published 2007)
Where two headings read alike, the source gives them in different places. Positions of bridges follow the written chain, without caps; N, C: chain ends. Residues, ends and D or L forms follow the SMILES beside them. No end group written: not given here.

Assays:
[1] = target: T1, IR (Homo sapiens, UniProt P06213); assay: Phage ELISA, binding of phage clones to IR (ratio over background); conditions: ratio of IR divided by ratio of IGF-1R
Target sequence in this assay (P06213 28-758 limits assumed): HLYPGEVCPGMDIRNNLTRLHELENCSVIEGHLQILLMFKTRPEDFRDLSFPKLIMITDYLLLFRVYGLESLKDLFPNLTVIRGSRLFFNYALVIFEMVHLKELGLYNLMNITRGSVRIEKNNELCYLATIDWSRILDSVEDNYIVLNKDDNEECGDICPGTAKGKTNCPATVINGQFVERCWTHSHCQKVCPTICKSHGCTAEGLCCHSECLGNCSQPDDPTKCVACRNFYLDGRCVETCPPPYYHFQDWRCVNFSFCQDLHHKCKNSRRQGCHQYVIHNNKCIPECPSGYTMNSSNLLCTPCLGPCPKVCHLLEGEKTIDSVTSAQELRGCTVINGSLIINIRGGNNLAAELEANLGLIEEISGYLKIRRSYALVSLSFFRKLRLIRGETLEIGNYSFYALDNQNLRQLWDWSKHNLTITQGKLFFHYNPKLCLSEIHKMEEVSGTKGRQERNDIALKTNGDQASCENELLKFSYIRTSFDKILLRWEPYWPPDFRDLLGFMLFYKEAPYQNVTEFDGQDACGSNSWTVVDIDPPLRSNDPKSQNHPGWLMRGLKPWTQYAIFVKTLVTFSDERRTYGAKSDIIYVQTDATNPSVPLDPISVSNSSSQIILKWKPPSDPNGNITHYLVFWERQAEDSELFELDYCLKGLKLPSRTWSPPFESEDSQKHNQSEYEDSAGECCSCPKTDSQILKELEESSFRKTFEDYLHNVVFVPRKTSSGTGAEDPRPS
Target sequence in this assay (P06213 763-956 limits assumed): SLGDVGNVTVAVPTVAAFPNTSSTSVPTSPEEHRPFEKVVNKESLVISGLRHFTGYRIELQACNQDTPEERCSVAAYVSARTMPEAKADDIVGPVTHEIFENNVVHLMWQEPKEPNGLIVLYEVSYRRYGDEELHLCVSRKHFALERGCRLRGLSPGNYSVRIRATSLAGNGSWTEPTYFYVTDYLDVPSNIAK

[2] = target: T2, IGF-1R (Homo sapiens, UniProt P08069); assay: Phage ELISA, binding of phage clones to IGF-1R (ratio over background); conditions: ratio of IGF-1R divided by ratio of IR
[3] = target: T1, IR; assay: IR-IC50 Biacore; set-up: replacing the transmembrane domain and the intracellular domain of IR with constant domains from immunoglobulin Fc or λ subunits; made in house; host or cells: human embryonic kidney 293 cells (Bass et al.)
Target sequence in this assay (P06213 28-758 limits assumed): as the sequence (P06213 28-758 limits assumed) above
Target sequence in this assay (P06213 763-1382 limits assumed): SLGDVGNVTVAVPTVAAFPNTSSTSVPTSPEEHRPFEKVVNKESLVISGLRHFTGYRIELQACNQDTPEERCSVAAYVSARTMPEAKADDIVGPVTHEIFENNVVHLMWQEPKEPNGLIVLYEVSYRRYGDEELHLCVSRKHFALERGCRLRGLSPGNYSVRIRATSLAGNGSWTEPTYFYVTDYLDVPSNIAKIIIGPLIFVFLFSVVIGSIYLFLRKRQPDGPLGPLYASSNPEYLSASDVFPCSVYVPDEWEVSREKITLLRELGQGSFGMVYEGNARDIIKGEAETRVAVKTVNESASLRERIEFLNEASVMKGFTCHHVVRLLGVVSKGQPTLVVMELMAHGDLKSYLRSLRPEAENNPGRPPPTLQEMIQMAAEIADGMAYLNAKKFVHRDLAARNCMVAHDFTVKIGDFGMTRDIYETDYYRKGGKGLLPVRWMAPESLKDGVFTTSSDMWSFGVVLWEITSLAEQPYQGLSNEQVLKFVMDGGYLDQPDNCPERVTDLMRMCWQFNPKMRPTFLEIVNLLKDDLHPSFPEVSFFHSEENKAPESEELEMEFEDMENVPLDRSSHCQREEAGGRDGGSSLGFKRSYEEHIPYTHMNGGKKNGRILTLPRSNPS

[4] = target: T3, soluble human insulin receptor-immunoglobulin heavy chain chimera (sIR-Fc) (Homo sapiens, UniProt P06213); assay: Fluorescence polarization, competition with FITC-RP9 for sIR-Fc; type: binding; conditions: for Bndg Ratio IGF-1R/IR: higher values indicated higher affinity for IR than IGF-1R
T3 construct: replacing the transmembrane domain and the intracellular domain of IR with constant domains from immunoglobulin Fc or λ subunits; made in house; host or cells: human embryonic kidney 293 cells (Bass et al.)

[5] = system: MCF-7 cells; assay: MCF-7 cell proliferation assay, IGF-1R agonist format; type: cell-based, human; conditions: for MCF-7 Agonist: MCF-7 cell proliferation, agonist effect
From the text: ; FIGS. 65A-65F), and were used for subsequent experiments.

[6] = system: MiaPaCa cells; assay: MiaPaCa cell proliferation assay, IGF-1R agonist format; type: cell-based, human; conditions: for MiaPaCa Agonist: MiaPaCa cell proliferation, agonist effect
[7] = target: T2, IGF-1R; assay: TR-FRET competition with biotinylated-20E2 for rhIGF-1R; conditions: TR-FRET (rhIGF-1R, b-20E2) versus FP (sIR-Fc), summary of Table 22
[8] = system: FDC-P2 cells expressing the IL-3 and human IGF-1R receptors; assay: IGF-1 proliferation assay in FDC-P2 cells, agonist format
[9] = system: FDC-P2 cells expressing the IL-3 and human IGF-1R receptors; assay: IGF-1 proliferation assay in FDC-P2 cells, antagonist format; conditions: FDC-P2 cells
[10] = system: free fat cells (adipocytes); assay: Adipocyte / free fat cell (FFC) assay, 3H glucose incorporation into lipid
[11] = target: T3, soluble human insulin receptor-immunoglobulin heavy chain chimera (sIR-Fc); assay: TR-FRET competition with biotinylated RP9 (b-RP9) for sIR-Fc; type: binding; conditions: Hill slope; target sIR-Fc; label b-RP9; TR-FRET
[12] = target: T3, soluble human insulin receptor-immunoglobulin heavy chain chimera (sIR-Fc); assay: TR-FRET competition with biotinylated S175 (b-S175) for sIR-Fc; type: binding; conditions: Hill slope, target sIR-Fc, label b-S175
[13] = target: T4, soluble HIR ectodomain (sIR) (Homo sapiens, UniProt P06213); assay: Fluorescence polarization, competition with FITC-RP9 for sIR; type: binding; conditions: Hill slope, target sIR, label FITC-RP9
T4 construct: soluble HIR ectodomain (sIR); Kristensen et al., 1998

[14] = target: T5, human insulin receptor (HIR) (Homo sapiens, UniProt P06213); assay: Insulin receptor binding, competition with 125I-labeled insulin (HIR Kd)
T5 construct: made in house

[15] = FFC assay potency grade, 0, + to ++++++, −
[16] = free fat cell assay potency class, Table 7
[17] = MBP-fusion or recombinant peptide as listed
[18] = read-out: nM ED50 Growth, FDC-P2 cells, agonist format

T3 sequence (P06213 28-758 limits assumed, stated change not applied): as the sequence (P06213 28-758 limits assumed) above
T3 sequence (P06213 763-956 limits assumed, stated change not applied): as the sequence (P06213 763-956 limits assumed) above
T5 sequence (P06213 28-758 limits assumed): as the sequence (P06213 28-758 limits assumed) above
T5 sequence (P06213 763-1382 limits assumed): as the sequence (P06213 763-1382 limits assumed) above
T2 sequence (P08069 31-736 limits assumed): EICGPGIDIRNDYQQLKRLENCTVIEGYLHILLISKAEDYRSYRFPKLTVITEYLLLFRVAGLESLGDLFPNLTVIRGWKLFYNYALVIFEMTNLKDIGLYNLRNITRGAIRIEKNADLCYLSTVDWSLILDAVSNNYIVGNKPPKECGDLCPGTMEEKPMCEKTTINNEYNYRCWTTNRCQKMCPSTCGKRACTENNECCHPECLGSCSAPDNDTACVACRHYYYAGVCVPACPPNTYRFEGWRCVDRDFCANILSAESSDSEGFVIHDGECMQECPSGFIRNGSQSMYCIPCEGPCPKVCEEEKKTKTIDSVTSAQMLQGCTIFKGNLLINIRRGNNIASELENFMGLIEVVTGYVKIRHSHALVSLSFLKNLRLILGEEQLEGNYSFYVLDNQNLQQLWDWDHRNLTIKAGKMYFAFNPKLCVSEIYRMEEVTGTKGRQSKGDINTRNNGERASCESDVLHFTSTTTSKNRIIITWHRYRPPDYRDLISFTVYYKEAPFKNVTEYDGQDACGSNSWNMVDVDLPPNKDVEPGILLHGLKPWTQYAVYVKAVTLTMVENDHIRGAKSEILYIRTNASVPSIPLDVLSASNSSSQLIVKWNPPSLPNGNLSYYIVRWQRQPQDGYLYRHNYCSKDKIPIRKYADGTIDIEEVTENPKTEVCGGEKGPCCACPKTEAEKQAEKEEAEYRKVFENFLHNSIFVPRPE
T2 sequence (P08069 741-935 limits assumed): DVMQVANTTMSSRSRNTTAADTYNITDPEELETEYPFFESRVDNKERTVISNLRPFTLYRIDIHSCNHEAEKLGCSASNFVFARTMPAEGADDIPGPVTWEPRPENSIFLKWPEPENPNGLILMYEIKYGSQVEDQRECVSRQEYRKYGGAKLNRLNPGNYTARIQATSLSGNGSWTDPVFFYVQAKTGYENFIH
T4 sequence (P06213 28-758 limits assumed): as the sequence (P06213 28-758 limits assumed) above
T4 sequence (P06213 763-956 limits assumed): as the sequence (P06213 763-956 limits assumed) above

CC(C)C[C@H](NC(=O)CNC(=O)[C@H](CCCNC(=N)N)NC(=O)CNC(=O)[C@H](CCC(=O)O)NC(=O)[C@@H](N)C(C)C)C(=O)N[C@@H](Cc1ccccc1)C(=O)N[C@@H](Cc1ccc(O)cc1)C(=O)N[C@@H](CC(=O)O)C(=O)N[C@@H](CC(C)C)C(=O)N[C@@H](CC(C)C)C(=O)N[C@@H](CCCNC(=N)N)C(=O)N[C@@H](CCC(N)=O)C(=O)N[C@@H](CC(C)C)C(=O)N[C@@H](CC(C)C)C(=O)N[C@@H](C)C(=O)N[C@@H](CCCNC(=N)N)C(=O)N[C@@H](CCCNC(=N)N)C(=O)N[C@@H](CCC(N)=O)C(=O)N[C@@H](CC(N)=O)C(=O)NCC(=O)O [20E2B-3-C6-IGFR]
Comparisons IR/IGF-1R [1]: 0.1 | Comparisons IGF-1R/IR [2]: 14.8 | IC50 [3]: > 5 µM

CC[C@H](C)[C@H](NC(=O)CN)C(=O)N[C@H](C(=O)N[C@@H](CO)C(=O)N[C@@H](CCC(N)=O)C(=O)N[C@@H](CO)C(=O)N[C@H]1CSSC[C@@H](C(=O)N[C@@H](Cc2c[nH]c3ccccc23)C(=O)O)NC(=O)[C@H](Cc2c[nH]c3ccccc23)NC(=O)[C@H](Cc2c[nH]c3ccccc23)NC(=O)[C@@H]2CCCN2C(=O)[C@H](CC(=O)O)NC(=O)[C@H](CO)NC(=O)[C@H](C(C)C)NC(=O)[C@H](CCC(N)=O)NC(=O)CNC(=O)[C@H](C)NC(=O)[C@H](Cc2ccccc2)NC(=O)[C@H](Cc2c[nH]c3ccccc23)NC(=O)[C@H](CC(=O)O)NC(=O)[C@H](Cc2ccc(O)cc2)NC(=O)[C@H](Cc2ccccc2)NC(=O)[C@H](CO)NC(=O)[C@H](CCC(=O)O)NC(=O)[C@@H]2CCCN2C1=O)[C@@H](C)CC [Peptide G33] (HELM PEPTIDE1{G.I.I.S.Q.S.C.P.E.S.F.Y.D.W.F.A.G.Q.V.S.D.P.W.W.C.W}$PEPTIDE1,PEPTIDE1,7:R3-25:R3$$$V2.0; N-terminus and C-terminus assumed; bridges inferred)
potency / affinity at IR, in words ([4]; FP with FITC-RP9, summary of Table 22): less potent | Bndg Ratio IGF-1R/IR [4]: 1.3 | IGF-1R agonist activity, proliferation of MCF-7 and MiaPaCa cells, in words ([5]; MCF-7 and MiaPaCa cells (Tables 27-28)): IGF-1R agonist activity | MCF-7 Agonist [5]: + | MiaPaCa Agonist [6]: + | binding to IGF-1R compared with IR, in words [7]: comparable binding to IGF-1R and IR | FDC-P2 Agonist ([8]; FDC-P2 cell proliferation, agonist effect): + | agonist activity at IGF-1R, in words ([8]; FDC-P2 cells): IGF-1R agonist activity | EC50 ([8]; read-out: ED50, agonist activity at IGF-1R, FDC-P2 cells): ~10000 nM | antagonist activity at IGF-1R, in words [9]: no antagonist activity

CC(C)[C@H](NC(=O)[C@H](Cc1ccccc1)NC(=O)[C@H](Cc1c[nH]c2ccccc12)NC(=O)[C@H](CC(=O)O)NC(=O)[C@H](Cc1ccc(O)cc1)NC(=O)[C@H](Cc1ccccc1)NC(=O)[C@H](CC(N)=O)NC(=O)[C@H](CCC(=O)O)NC(=O)[C@H](Cc1c[nH]cn1)NC(=O)[C@H](Cc1ccccc1)NC(=O)CNC(=O)CNC(=O)[C@@H](N)CSSC[C@H](N)C(=O)NCC(=O)NCC(=O)N[C@@H](Cc1ccccc1)C(=O)N[C@@H](Cc1c[nH]cn1)C(=O)N[C@@H](CCC(=O)O)C(=O)N[C@@H](CC(N)=O)C(=O)N[C@@H](Cc1ccccc1)C(=O)N[C@@H](Cc1ccc(O)cc1)C(=O)N[C@@H](CC(=O)O)C(=O)N[C@@H](Cc1c[nH]c2ccccc12)C(=O)N[C@@H](Cc1ccccc1)C(=O)N[C@H](C(=O)N[C@@H](CCCNC(=N)N)C(=O)N[C@@H](CCC(N)=O)C(=O)N[C@H](C(=O)N[C@@H](CO)C(=O)N[C@@H](CCCCN)C(=O)N[C@@H](CCCCN)C(=O)O)C(C)C)C(C)C)C(=O)N[C@@H](CCCNC(=N)N)C(=O)N[C@@H](CCC(N)=O)C(=O)N[C@H](C(=O)N[C@@H](CO)C(=O)N[C@@H](CCCCN)C(=O)N[C@@H](CCCCN)C(=O)O)C(C)C [Peptide S228]
FFC [10, 15]: ++

CC[C@@H](C)[C@@H](NC(=O)[C@H](CCC(=O)O)NC(=O)[C@H](CC(=O)O)NC(=O)[C@H](Cc1ccccc1)NC(=O)[C@H](Cc1c[nH]c2ccccc12)NC(=O)[C@H](CCC(=O)O)NC(=O)[C@H](Cc1ccc(O)cc1)NC(=O)[C@H](Cc1ccccc1)NC(=O)[C@H](CCC(=O)O)NC(=O)[C@H](CCCCN)NC(=O)[C@H](CC(N)=O)NC(=O)[C@H](CC(N)=O)NC(=O)[C@@H](N)CCCCN)C(=O)NCC(=O)N[C@H](CCC(N)=O)C(=O)O [Peptide S320] (HELM PEPTIDE1{K.N.N.K.E.F.Y.E.W.F.D.E.[dI].G.[dQ]}$$$$V2.0; N-terminus and C-terminus assumed)
FFC [10, 15]: 0

CC(C)C[C@H](NC(=O)[C@H](CCC(N)=O)NC(=O)[C@H](CCCNC(=N)N)NC(=O)[C@H](CCC(=O)O)NC(=O)[C@H](Cc1ccccc1)NC(=O)[C@H](Cc1c[nH]c2ccccc12)NC(=O)[C@H](CC(=O)O)NC(=O)[C@H](Cc1ccc(O)cc1)NC(=O)[C@H](Cc1ccccc1)NC(=O)[C@H](CO)NC(=O)[C@@H](N)CCC(=O)O)C(=O)NCC(=O)O [Peptide S390]
Hill, sIR-Fc, b-RP9, FRET [11]: −0.49 | Hill, sIR-Fc, b-S175, FRET [12]: −0.49 | Hill, sIR, FITC-RP9, FP [13]: −0.64 | activity in the free fat cell (FFC) assay / at IR, in words [10]: potency similar to full-length RP9 monomer peptides | FFC ([10]; Table 6, free fat cell assay): + | FFC ([10]; free fat cell assay class, Table 9): + | FFC [10, 16]: +

(ESFYDWFERQLGK)2-23 [Peptide S415]
activity in the free fat cell (FFC) assay / at IR, in words [10]: highly potent

DYKDDDDKVRVDWLQRNANFYAWFVAELGGGSGGSGGSGGSGRVDWLQRNANFYDWFVAELGAAAGAPVPYPDPLEPRAA [RB509]
Kd [14, 17]: 0.055 µM

ESFYDWFERQ [Peptide S400]
FFC ([10]; Table 6, free fat cell assay): 0 | FFC [10, 16]: 0

FHENFYDWFVQRVSKK [H2C (D117)]
Bndg Ratio IGF-1R/IR [4]: 9

GRFYGWFQDAIDQLMPWGFD [RP-3]
IC50 [3]: > 10 µM

GSLDESFYDWFER [Peptide S396]
FFC ([10]; Table 6, free fat cell assay): 0 | FFC [10, 16]: 0

GSLDESFYDWFERQ [Peptide S394]
activity in the free fat cell (FFC) assay / at IR, in words [10]: potency similar to full-length RP9 monomer peptides | FFC [10, 16]: +

GSLDESFYDWFERQL [Peptide S395]
Kd ([14]; Table 6): 0.091 µM | FFC ([10]; Table 6, free fat cell assay): +

GSLDESFYDWFERQLG [Peptide S386]
FFC [10, 15]: +

GSRPVFHEQFYEWFVDQLGL [RP-1]
IC50 [3]: 1 µM

Insulin-like growth factor 1 [IGF-1, reference compound]
EC50 ([5]; MCF-7 cells, serum-free conditions, read-out: ED50, proliferation): 0.005 µM | EC50 ([6]; MiaPaCa cells, serum-free conditions, read-out: ED50, proliferation): 0.005 µM

MADYKDDDDKGSLDESFYDWFERQLGKKGGSGGSGSLDESFYDWFERQLGKKAAAGAPVPYPDPLEPRPG [RB521]
Kd [14, 17]: 0.044 µM

MADYKDDDDKWLDQEWAWVQCEVYGRGCPSGGSGGSGSLDESFYDWFERQLGKKAAA(ETAG)PG [Peptide 539]
activity in the free fat cell (FFC) assay / at IR, in words [10]: full agonist

MGSLDESFYDWFERQLGEEEGGDHHHHHHPG [RB569]
Kd [14, 17]: 0.21 µM

MQNDDGSLDESFYDWFERQLGEEEGGDHHHHHHPG [RB570]
Kd [14, 17]: 0.025 µM

PPWGARFYDAIEQLVFDNL [RP-4]
IC50 [3]: 5 µM

QSFYDYIEELLGGEWKK [Peptide 20E2-PD1-IR]
IC50 [3]: > 5 µM

RB596 (MQNDDGSLDESFYDWFERQLGHHHHHHPG)
FF ([10]; fat cell potency, symbols ++ and − not defined in the table): 9.4*10^−8

RP6-D8B12 (TFYSCLASLLTGTPQPNRGPWERCRWLEQERAWIWCEIQGSGCRA; not fully specified; cysteine pairing not given here)
MCF-7 Agonist [5]: + | MiaPaCa Agonist [6]: +

RSEASFHVEFYSWFEEQLRS [RP-2]
IC50 [3]: 1 µM

WLDQERAWLWCEISGRGCLSGGSGGSGGSGGSGSLDESFYDWFERQLGKK (disulfide 11-18 (inferred)) [D815-RP9 12 aa]
Max Action ([8]; FDC-P2 cells, agonist format): 100% | EC50 [8, 18]: 10000 nM

WLDQERAWLWCEISGRGCLSGGSGGSGSLDESFYDWFERQLGKK (disulfide 11-18 (inferred)) [D815-RP9 6 aa]
Max Action ([8]; FDC-P2 cells, agonist format): >50% | EC50 [8, 18]: 50 nM
